Measurements: patent publication US20230303539A1, “IMMUNOREGULATORY COMPOUND AND ANTITUMOR APPLICATION THEREOF” (SHANGHAITECH UNIVERSITY, priority 2020, published 2023)

Tests used:
[1] = tested on: multiple myeloma cancer cells MM.1S; assay: Cell proliferation inhibition (cell viability, CCK-8) in MM.1S; assay type: cell-based; details: Homo sapiens, MM1.S; MM.1S cells, 72 h treatment, CCK-8 cell viability
Source text: (§1) The tested cell lines used were: Multiple myeloma cell line MM.1S, human Burkitt's lymphoma cell line Daudi, human acute promyelocytic leukemia cell line NB4, human mantle cell lymphoma cell line JEKO-1, human B-cell lymphoma cell line SU-DHL-4, human mantle cell lymphoma cell line Mino, human diffuse large B-cell lymphoma cell line TMD8, human B-cell lymphoma cell line DOHH2, PBMCs cell and human diffuse large B-cell lymphoma cell line WSU-DLCL2, which were purchased from ATCC (American type Culture Collection) or Cell Bank/Stem Cell Bank, Chinese Academy of Sciences. The medium was RPMI1640 supplemented with 10% FBS (fetal calf serum) and 1% Penicillin-Streptomycin. The cells used were identified as correct cells by STR cells, and were negative for mycoplasma through routine inspections.
(§2) IC50 values of the compounds of the present disclosure (including the compounds in Table 1 and compounds of examples 1-23) were measured using Cell Titer Blue, Cell Titer GLO, or WST reagent from Promega Company. Assay details are as follows: Cells were seeded in 100 μL RPMI1640 medium containing serum at a density of 15,000 cells/well. After 24 h, the inoculated cells were treated with diluted commercial inhibitor and the compounds of the present disclosure to be tested after serial dilution. After the cells were treated with the compounds of the present disclosure to be tested for 72 h, cell viability was determined after adding the cell viability detection kit listed above according to the reagent operating instructions. The negative control was DMSO, and the positive control was a commercial inhibitor, both of which were used to treat the cells through the same method as that of the compounds of the present disclosure. The growth inhibition of the compounds of the present disclosure on cells was plotted by Prism Graphpad software, and the IC50 values of the compounds of the present disclosure were calculated therefrom.
(§3) We tested the activities of the compounds of the present invention (including the compounds in Table 1 and Examples 1-23 compounds) in multiple myeloma cancer cells MM.1S cell and B lymphoma cells Daudi through a dose-dependent manner. The cells were treated with the compounds of the present invention at 10 different successively decreasing concentrations (starting at the highest concentration of […]; 5-fold serial dilutions) for 72 h, and then the cell viability determination was performed in accordance with CCK-8 reagent operating instructions.

[2] = tested on: B lymphoma cells Daudi; assay: Cell proliferation inhibition (cell viability, CCK-8) in Daudi; assay type: cell-based; details: Homo sapiens, 72 h treatment, CCK-8 cell viability
Source text: as §1, §2, §3

[3] = tested on: human mantle cell lymphoma cell line Mino; assay: Cell proliferation inhibition (CCK-8) in Mino; assay type: cell-based; details: MINO cells, 72 h treatment, read-out: IC50 (half inhibitory concentration) in tumor cells, MINO
Source text: as §1, with “The cells used were identified as correct cells by STR cells, and were negative for mycoplasma through routine inspections.” left out
(§4) IC50 values of the compounds of the present disclosure (including the compounds in Table 1 and compounds of examples 1-23) were measured using Cell Titer Blue, Cell Titer GLO, or WST reagent from Promega Company. […] After the cells were treated with the compounds of the present disclosure to be tested for 72 h, cell viability was determined after adding the cell viability detection kit listed above according to the reagent operating instructions. […] The growth inhibition of the compounds of the present disclosure on cells was plotted by Prism Graphpad software, and the IC50 values of the compounds of the present disclosure were calculated therefrom. […]

[4] = tested on: human diffuse large B-cell lymphoma cell line WSU-DLCL2; assay: Cell proliferation inhibition (CCK-8) in WSU-DLCL2; assay type: cell-based; details: WSUDLCL2, WSU-DLCL2 cells, 72 h treatment, read-out: IC50 (half inhibitory concentration) in tumor cells, WSU-DLCL2
Source text: as §1, with “The cells used were identified as correct cells by STR cells, and were negative for mycoplasma through routine inspections.” left out
as §4

[5] = tested on: human B-cell lymphoma cell line DOHH2; assay: Cell proliferation inhibition (CCK-8) in DOHH2; assay type: cell-based; details: DOHH-2, DOHH2 cells, 72 h treatment, read-out: IC50 (half inhibitory concentration) in tumor cells, DOHH2
Source text: as §1, with “The cells used were identified as correct cells by STR cells, and were negative for mycoplasma through routine inspections.” left out
as §4

[6] = tested on: human diffuse large B-cell lymphoma cell line TMD8; assay: Cell proliferation inhibition (CCK-8) in TMD8; assay type: cell-based; details: TMD8 cells, 72 h treatment, read-out: IC50 (half inhibitory concentration) in tumor cells, TMD8
Source text: as §1, with “The cells used were identified as correct cells by STR cells, and were negative for mycoplasma through routine inspections.” left out
as §4

[7] = tested on: human mantle cell lymphoma cell line JEKO-1; assay: Cell proliferation inhibition (CCK-8) in JEKO-1; assay type: cell-based; details: JEKO-1 cells, 72 h treatment, FIG. 3
Source text: as §1, with “The cells used were identified as correct cells by STR cells, and were negative for mycoplasma through routine inspections.” left out
as §4

[8] = tested on: human B-cell lymphoma cell line SU-DHL-4; assay: Cell proliferation inhibition (CCK-8) in SU-DHL-4; assay type: cell-based; details: SU-DHL-4 cells, 72 h treatment, FIG. 3
Source text: as §1, with “The cells used were identified as correct cells by STR cells, and were negative for mycoplasma through routine inspections.” left out
as §4

[9] = tested on: IKZF1/3; assay: IKZF protein degradation, western blotting assay in WSU-DLCL2; assay type: cell-based, human; details: dose-dependent, FIGS. 4-5
Procedure: (§5) Most antibodies were purchased from Cell Signaling Technology, including IKZF1 (#9034S), IKZF3(#15103S), CK1α(#ab108296). GAPDH antibody was purchased from Abcam Company. Tumor cells were plated in a 24-well plate at a cell seeding density of 3×10^5 cells/mL, with 1 mL culture media per well. After 24 h, the cells were treated with different concentrations of the compounds of the present disclosure. After 16 hours, the cells were collected, and washed with PBS. The supernatant was discarded, and the cells were placed on ice, and treated with RIPA protein lysate containing Halt protease and phosphatase inhibitor. The lysate was centrifuged at 10000 RPM at 4° C. for 10 minutes, and the supernatant was collected. An equal amount of proteins were loaded in 4×SDS sample solution, denatured at 95° C. for 5 minutes, and then freezed to -20° C. or directly subjected to protein electrophoresis (4-15% gradient gel, Bio-rad). […] DC50 value (the drug concentration required for degrading proteins by 50%, abbreviated as DC50) reads method: comparing the gray values of the Western blotting bands for the drug treatment with the gray values of the Western blotting band for the DMSO control, and reading the drug concentration range corresponding to the gray value of the Western blotting bands for the drug treatment which is equal to half of the gray value of the Western blotting band for the DMSO control. […]

[10] = tested on: IKZF1/3; assay: IKZF protein degradation, western blotting assay in SU-DHL-4; assay type: cell-based, human; details: SU-DHL-4, western blotting, dose-dependent; FIGS. 4-5
Procedure: as §5

SMILES: Cc1nc2cccc(NCc3ccc(CN4CCCCCC4)cc3F)c2c(=O)n1C1CCC(=O)NC1=O (stereo not shown) [SIAIS355035, 3-(5-((4-(azepan-1-ylmethyl)-2-fluorobenzyl)amino)-2-methyl-4-oxoquinazolin-3(4H)-yl)piperidine-2,6-dione]
- IC50 [1]: 2.62 ± 0.49 nM
- IC50 [2]: 12.9 ± 3.87 nM
- IC50 [3]: 5.05 nM
- IC50 [4]: 164 nM
- IC50 [5]: 307 nM
- IC50 [6]: 103 nM
- inhibition of JEKO-1 cell line (in words) [7]: significantly stronger inhibitory effects as compared with CC-122 and lenalidomide
- inhibition of SU-DHL-4 cell line (in words) [8]: significantly stronger inhibitory effects as compared with CC-122 and lenalidomide
- IKZF1/3 degradation (in words) [9]: can significantly degrade IKZF1/3 at effective concentration significantly lower than that of CC-122
- IKZF1/3 degradation (in words) [10]: can significantly degrade IKZF1/3 at effective concentration significantly lower than that of CC-122
